Experimental data taken from US20260199297A1, “FERROPTOSIS INDUCERS TO TREAT CANCER” (The University of Toledo, priority 2022, published 2026).
Where two headings read alike, the source gives them in different places.

Key:
[1] = test system: HT-1080 cells; assay: Cytotoxicity (methylene blue cell viability), HT-1080; assay type: cell-based, human; details: Homo sapiens
Method: (§1) Having synthesized the CETZOLE analogs, their cytotoxic activity was evaluated. […] NCI-H522 RV-GFP is the corresponding control with RV-GFP tag, but without SLC7A11 overexpression. […] The cytotoxicity screening was conducted as described previously.
(§2) Cell lines were cultured in a humidified atmosphere containing 10% CO2 in Dulbecco's modified Eagle's medium (Mediatech, Inc) supplemented with 10% fetal bovine serum (Atlanta Biologicals). Cell types used MEFs, HT1080 (human fibrosarcoma cells), NARF2 (osteosarcoma), WI-38 (human embryonic lung fibroblast), MDA MB 231 (breast cancer), HCT-116 (human colon), and NCI-H522 (Non-Small Cell Lung Cancer) cell lines. To determine viability throughout these examples, 5,000 cells were plated per well of a 96-well plate and drugs were added 1 day later. Cells were stained 1 to 3 days later with a saturated solution of methylene blue in 50% ethanol. Plates were rinsed and retained dye was quantified by spectrophotometry. Absorbance was normalized to DMSO and given as 1 or 100% for cell viability. Results are representative of at least two independent experiments. Statistical significance was assessed using the Student's t test. All commercially available chemicals were obtained from Cayman Chemicals unless otherwise noted.

[2] = test system: MDA-MB-231 cells; assay: Cytotoxicity (methylene blue cell viability), MDA-MB-231; assay type: cell-based; details: Homo sapiens
Method: as §1, §2

[3] = test system: NCI-H522, HT-1080, and MDA-MB-231 cells; assay: Cytotoxicity screening of CETZOLE probes and negative controls; assay type: cell-based; details: 20 μM maximum concentration
From the text: The benzophenone bromo-alkane 28e was obtained by selective EDC coupling of diaminobenzophenone 31 with 4-pentynoic acid 32 to obtain amide 33, followed by dropwise addition of bromoacetyl bromide 30 to a solution of 33 and TEA in DCM. To obtain intermediate 28f, Boc-protection of methyl 2-amino-5-bromobenzoate 34 to get 35, followed by installing an azide group at the para position employing Markiewicz and Helquist conditions, gave the azide 36. This was subjected to saponification followed by EDC coupling with propargyl amine 38 to obtain 39. Boc deprotection to get 40 was followed by acylation of the resulting amine with bromoacetyl bromide 30 afforded the bromo alkane 28f. They were screened for activity on NCI-H522, HT-1080, and MDA-MB-231 cells prior to using in target identification.
A similar cytotoxicity trend was observed on HT-1080 and MDA-MB-231 cancer cell lines.
Cell lines were cultured in a humidified atmosphere containing 10% CO2 in Dulbecco's modified Eagle's medium (Mediatech, Inc) supplemented with 10% fetal bovine serum (Atlanta Biologicals). […] Plates were rinsed and retained dye was quantified by spectrophotometry. Absorbance was normalized to DMSO and given as 1 or 100% for cell viability. […] Statistical significance was assessed using the Student's t test. […]

[4] = test system: NCI-H522 cells; assay: Cytotoxicity (methylene blue cell viability), NCI-H522; assay type: cell-based, human; details: Homo sapiens
Method: as §1, §2

[5] = test system: NARF2 cells; assay: Cytotoxicity (methylene blue cell viability), NARF2; assay type: cell-based, human; details: Homo sapiens; Table 1; NARF2 osteosarcoma cells; read-out: Half maximal inhibitory concentration (IC50), NARF2
Method: as §1, §2

[6] = test system: MEFs (Mouse Embryonic Fibroblasts); assay: Cytotoxicity on normal cell line MEFs; assay type: cell-based; details: Fibroblast; Table 2; Mouse Embryonic Fibroblasts; read-out: Half maximal inhibitory concentration (IC50), Normal Cell Line Mefs
Method: (§3) To determine cytotoxicity at a therapeutically more relevant concentration, cells were treated at a single concentration of […] (FIG. 12).
as §2

[7] = test system: NCI-H522 cells; assay type: cell-based; details: human, 3 days
From the text: FIGS. 10A-10C: Results of live cell imaging.
FIG. 16: Evaluation of ferroptosis-inducing character of CETZOLE probes. A three-day ferroptosis rescue assay of NCI-H522 cells treated with DMSO, 1, RSL3, and CETZOLE analogs, and liproxstatin-1 co-treatment, showing significant ferroptosis inducing probes.
The live cell montage images in FIG. 10A show notable ferroptosis-related morphological changes, such as membrane breakage and floating cell debris in the medium. The NCI-H522 cell viability improved overall when cells were co-treated with the radical scavenger liproxstatin-1 (FIG. 10C). […] To confirm this, flow-cytometry was performed to quantify lipid peroxidation using redox-active BODIPY-C11 (FIGS. 11A-11E).
Overall, CETZOLE probes do induce radical-mediated cell death and are therefore indeed ferroptotic agents.
as §2, with “noted. Compound CETZOLE 1 and the analogs were synthesized as highlighted.” for “noted.”

[8] = test system: renal cancer cell line UO-31; assay: NCI 60 cell line assay, single dose, UO-31; assay type: cell-based, human; details: single dose of 10 μM
Method: (§4) The cell lines used in this assay belonged to leukemia, non-small-cell lung cancer, colon cancer, CNS cancer, melanoma, ovarian cancer, renal cancer, prostate cancer, and breast cancer. The compounds were first tested at a single dose of 10 μM. Analogue 20a was the most cytotoxic with a mean percentage growth of 1.24 (FIG. 13A). […] Analogs 20a and 23 were further tested in the NCI dose response assay ([…]).

[9] = test system: leukemia, ovarian cancer, and renal cancer cell lines; assay: NCI dose response assay; assay type: cell-based, human
Method: (§5) The cell lines used in this assay belonged to leukemia, non-small-cell lung cancer, colon cancer, CNS cancer, melanoma, ovarian cancer, renal cancer, prostate cancer, and breast cancer. The compounds were first tested at a single dose of 10 μM.

[10] = test system: ovarian cancer cell line IGROV1; assay: NCI 60 cell line assay, single dose, IGROV1; assay type: cell-based, human; details: single dose of 10 μM
Method: as §4

[11] = test system: WI38 cells; assay: Cytotoxicity on normal cell line WI38; assay type: cell-based, human; details: Homo sapiens, WI-38; Table 2; lung tissue fibroblast; read-out: Half maximal inhibitory concentration (IC50), Normal Cell Line WI38
Method: as §3, §2

[12] = test system: NCI-H522 RV-GFP cells; assay: Cytotoxicity (methylene blue cell viability), NCI-H522 RV-GFP control clone; assay type: cell-based, human; details: Homo sapiens, NCI-H522; Table 1; control clone with RV-GFP tag; read-out: Half maximal inhibitory concentration (IC50), NCI-H522 Rv-GFP
Method: as §1, §2

[13] = test system: NCI-H522 and HT-1080 cancer cell lines, WI38 and MEFs normal cell lines; assay: Selective cytotoxicity assay at a single concentration; assay type: cell-based; design: dose or concentration left out as unconfirmed; details: NCI-H522, HT-1080, WI38, MEFs
Method: Overall, WI38 cells were the most tolerant to the treatment, whereas MEF cells were partially tolerant and relatively less sensitive than both NCI-H522 and HT-1080 cells. To determine cytotoxicity at a therapeutically more relevant concentration, cells were treated at a single concentration of […] (FIG. 12).
as §2, with “noted. Compound CETZOLE 1 and the analogs were synthesized as highlighted.” for “noted.”

[14] = test system: 60 human cancer cell lines; assay: NCI 60 human cancer cell line assay, single dose; assay type: cell-based; details: single dose of 10 μM, 60 cell lines
Method: as §5

[15] = test system: NCI-H522 GFP-SLC7A11 #8 cells; assay: Cytotoxicity (methylene blue cell viability), NCI-H522 clone overexpressing GFP-SLC7A11; assay type: cell-based, human; details: Homo sapiens; Table 1; NCI-H522 clone overexpressing GFP-tagged SLC7A11; read-out: Half maximal inhibitory concentration (IC50), NCI-H522 GFP-SCL7A11 #8
Method: as §1, §2

[16] = test system: renal cancer cell line 786-0; assay: NCI 60 cell line assay, single dose, 786-0; assay type: cell-based, human; details: single dose of 10 μM
Method: as §4

[17] = test system: HeLa cells; assay: Cellular localization of probes by bio-imaging; assay type: cell-based; details: 37° C. one hour, TAMRA-PEG-3-azide click
Method: FIGS. 17A-17E: Cellular localization of CETZOLE probes. […] Cells were incubated with the respective agent, permeabilized, subjected to TAMRA-PEG3 azide ligation, and viewed under microscope.
The thiazole alkyne pharmacophore undergoes thiol addition. Therefore, PPd is believed to interact covalently with the target protein, and the propargyl alkyne serves as a clickable bio-orthogonal handle for attaching reporter tags. On the other hand, PPe has a photoactivatable benzophenone moiety that covalently binds to the target protein(s) upon photo irradiation. Bio-imaging experiments were conducted to determine the spatial localization of CETZOLE probes in HeLa cells using fluorescent reporter tags. For this, HeLa cells were incubated with probe PPd and the negative control NPd (FIG. 17A) at 37° C. for one-hour. The cells were washed with cold PBS, fixed with formaldehyde (5%), permeabilized with triton-X, and subjected to bioorthogonal click reaction with TAMRA-PEG-3-azide in the presence of tris-hydroxypropyltriazolylmethylanine (THPTA), copper (II) sulfate (CuSO4), and sodium ascorbate. After multiple washings, cells were transferred on to a microscope viewing slide, stained with Hoechst dye, and observed under Olympus microscope (FIGS. 17C-17E).

[18] = HT-1080, Table 3, probes and negative controls, read-out: IC50, HT-1080
[19] = MDA-MB-231, Table 3, probes and negative controls, read-out: IC50, MDA-MB-231
[20] = NCI-H522, Table 3, probes and negative controls, read-out: IC50, NCI-H522

`C#Cc1nc(C2=C(C)C(=O)/C(=N/OCC(=O)Nc3ccc4oc(=O)c(C)cc4c3)C2)cs1` [PPc, (E)-2-(((4-(2-Ethynylthiazol-4-yl)-3-methyl-2-oxocyclopent-3-en-1-ylidene)amino)oxy)-N-(3-methyl-2-oxo-2H-chromen-6-yl)acetamide] was tested, and the IC50 [1, 18] was over 20000 nM, the IC50 [2, 19] was over 20000 nM and the “cytotoxicity at maximum concentration tested” value [3] was “did not induce any cytotoxicity”. For the same compound, the IC50 [4, 20] was over 20000 nM.

With `C#Cc1nc(C2=C(C)C(OC(C)=O)/C(=N/OC(C)=O)C2)cs1` (centres unmarked) [compound 20a, (E)-5-(Acetoxyimino)-3-(2-ethynylthiazol-4-yl)-2-methylcyclopent-2-en-1-yl acetate] the IC50 [5] was 7260 ± 2010 nM, the IC50 [6] was 120 ± 60 nM and the “cell viability on liproxstatin-1 co-treatment (rescue)” value [7] was 60%. The “percentage growth, UO-31” value [8] was −95%, the “sensitivity of cell lines in dose response assay” value [9] was “particularly sensitive” and the “percentage growth, IGROV1” value [10] was −95%. It also gave an IC50 ([1]; HT-1080, Table 2, read-out: Half maximal inhibitory concentration (IC50), Cancer Cell Line HT1080) of 140 ± 60 nM, an IC50 ([1]; Table 1, HT-1080 fibrosarcoma cell line, read-out: Half maximal inhibitory concentration (IC50), HT-1080) of 140 ± 60 nM and an IC50 [11] of 1530 ± 360 nM. For the same compound, the IC50 [12] was 260 ± 110 nM, the “cell death at a single concentration” value [13] was “killed only the cancer cell lines NCI-H522 and HT-1080” and the mean percentage growth [14] was 1.24. For the same compound, the IC50 ([2]; Table 1, MDA-MB-231 breast cancer cell line, read-out: Half maximal inhibitory concentration (IC50), MDA-MB-231) was 230 ± 20 nM, the IC50 [15] was 1590 ± 490 nM and the “percentage growth, 786-0” value [16] was −95%. It also gave an IC50 ([4]; NCI-H522, Table 2, read-out: Half maximal inhibitory concentration (IC50), Cancer Cell Line NCI-H522) of 170 ± 80 nM and an IC50 ([4]; Table 1, NCI-H522 cancer cell line, read-out: Half maximal inhibitory concentration (IC50), NCI-H522) of 170 ± 80 nM.

`C#CCO/N=C1\CC(c2csc(C#C)n2)=C(C)C1O` (centres unmarked) [PPd, 4-(2-Ethynylthiazol-4-yl)-2-hydroxy-3-methylcyclopent-3-en-1-one 0-prop-2-yn-1-yl oxime] was tested, and the “cell viability on liproxstatin-1 co-treatment (rescue)” value [7] was 75%, the IC50 [1, 18] was 1170 ± 120 nM and the “spatial localization of probe” value [17] was “intense intracellular aggregation of probe in the nucleus and vacuoles”. It also gave an IC50 [2, 19] of 2700 ± 720 nM and an IC50 [4, 20] of 2310 ± 1080 nM.
